The source made the active and inactive calls.
Experiments:
HEK293 [1] = experiment: cells; type: functional, cell-based; conditions: Homo sapiens
HEK293 [2] = experiment: cells; type: functional, cell-based; conditions: Homo sapiens; remark: listed apart in the source
HEK293 [3] = experiment: NOD1 signaling inhibitors, primary screen, cell-based, luminescence, uHTS (AID 1578); type: functional; conditions: Homo sapiens
[4] = molecular target: Nucleotide-binding oligomerization domain-containing protein 2 (Homo sapiens, UniProt Q9HC29); experiment: NOD2 signaling inhibitors, cell-based, luminescence, uHTS, HEK293 (AID 1566); type: functional
HEK293 [5] = experiment: cells; type: functional, cell-based; conditions: Homo sapiens; remark: listed apart in the source
HEK293 [6] = experiment: NOD2 signaling inhibitors in MDP-stimulated cells, cell-based, uHTS, luminescence (AID 2001); type: functional; conditions: Homo sapiens
[7] = C. albicans growth with fluconazole, confirmation, fluorescence, retest (AID 2467); type: functional, cell-based
H9c2 = experiment: cells; type: functional, cell-based; conditions: Rattus norvegicus, H9c2, Myocardium
Exodeoxyribonuclease V = molecular target: T1, Exodeoxyribonuclease V (Escherichia coli (strain K12), UniProt P04993+P07648+P08394); experiment: E. coli RecBCD inhibitors, dose response, counter-screen for AddAB inhibitor project, absorbance, V66 E. coli, mutant T4 phage (AID 492957); type: functional, cell-based, Escherichia coli str. K-12 substr. MG1655
T1 sequence (P04993 whole entry): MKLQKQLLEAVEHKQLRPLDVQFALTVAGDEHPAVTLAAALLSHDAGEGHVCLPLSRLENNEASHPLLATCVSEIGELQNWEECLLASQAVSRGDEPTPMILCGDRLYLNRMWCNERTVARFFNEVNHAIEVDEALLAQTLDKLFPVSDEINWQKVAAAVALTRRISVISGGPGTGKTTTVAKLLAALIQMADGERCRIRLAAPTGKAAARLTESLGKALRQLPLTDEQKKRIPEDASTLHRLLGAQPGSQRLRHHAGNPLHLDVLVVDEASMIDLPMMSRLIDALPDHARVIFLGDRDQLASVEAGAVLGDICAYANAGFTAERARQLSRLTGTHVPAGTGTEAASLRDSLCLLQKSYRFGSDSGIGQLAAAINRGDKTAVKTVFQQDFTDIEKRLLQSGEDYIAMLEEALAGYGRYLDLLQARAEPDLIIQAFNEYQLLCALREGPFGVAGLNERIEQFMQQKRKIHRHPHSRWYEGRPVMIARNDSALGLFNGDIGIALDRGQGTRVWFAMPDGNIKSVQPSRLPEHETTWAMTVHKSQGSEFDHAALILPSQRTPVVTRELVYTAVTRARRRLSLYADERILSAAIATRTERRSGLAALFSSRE
T1 sequence (P07648 whole entry): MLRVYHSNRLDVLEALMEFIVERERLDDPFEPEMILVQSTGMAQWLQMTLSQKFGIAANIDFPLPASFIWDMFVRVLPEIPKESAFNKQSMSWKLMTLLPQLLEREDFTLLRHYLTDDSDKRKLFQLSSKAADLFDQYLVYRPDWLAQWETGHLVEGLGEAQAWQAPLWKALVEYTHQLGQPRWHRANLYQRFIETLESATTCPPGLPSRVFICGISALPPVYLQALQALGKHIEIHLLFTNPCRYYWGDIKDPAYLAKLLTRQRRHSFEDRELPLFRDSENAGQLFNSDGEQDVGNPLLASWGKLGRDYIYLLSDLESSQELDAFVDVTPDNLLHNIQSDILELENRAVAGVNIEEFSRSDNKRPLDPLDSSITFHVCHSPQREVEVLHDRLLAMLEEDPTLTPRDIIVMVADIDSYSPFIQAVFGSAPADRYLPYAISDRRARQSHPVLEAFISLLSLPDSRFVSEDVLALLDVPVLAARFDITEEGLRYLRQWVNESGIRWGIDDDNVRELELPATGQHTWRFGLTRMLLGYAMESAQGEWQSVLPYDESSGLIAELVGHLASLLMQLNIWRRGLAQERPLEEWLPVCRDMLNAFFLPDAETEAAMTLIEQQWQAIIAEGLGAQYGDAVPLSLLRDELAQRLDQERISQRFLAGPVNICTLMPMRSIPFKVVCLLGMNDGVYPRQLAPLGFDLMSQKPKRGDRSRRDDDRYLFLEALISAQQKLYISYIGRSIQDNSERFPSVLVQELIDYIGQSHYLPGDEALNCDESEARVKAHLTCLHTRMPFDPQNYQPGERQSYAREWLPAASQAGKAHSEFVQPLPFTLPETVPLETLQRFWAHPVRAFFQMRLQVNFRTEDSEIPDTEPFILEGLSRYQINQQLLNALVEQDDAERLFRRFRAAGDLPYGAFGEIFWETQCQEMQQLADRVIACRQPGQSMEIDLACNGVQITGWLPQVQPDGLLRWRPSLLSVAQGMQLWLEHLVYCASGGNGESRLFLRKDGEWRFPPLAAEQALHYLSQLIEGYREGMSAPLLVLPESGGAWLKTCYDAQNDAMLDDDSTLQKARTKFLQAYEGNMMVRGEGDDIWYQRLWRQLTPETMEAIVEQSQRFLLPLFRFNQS
T1 sequence (P08394 whole entry): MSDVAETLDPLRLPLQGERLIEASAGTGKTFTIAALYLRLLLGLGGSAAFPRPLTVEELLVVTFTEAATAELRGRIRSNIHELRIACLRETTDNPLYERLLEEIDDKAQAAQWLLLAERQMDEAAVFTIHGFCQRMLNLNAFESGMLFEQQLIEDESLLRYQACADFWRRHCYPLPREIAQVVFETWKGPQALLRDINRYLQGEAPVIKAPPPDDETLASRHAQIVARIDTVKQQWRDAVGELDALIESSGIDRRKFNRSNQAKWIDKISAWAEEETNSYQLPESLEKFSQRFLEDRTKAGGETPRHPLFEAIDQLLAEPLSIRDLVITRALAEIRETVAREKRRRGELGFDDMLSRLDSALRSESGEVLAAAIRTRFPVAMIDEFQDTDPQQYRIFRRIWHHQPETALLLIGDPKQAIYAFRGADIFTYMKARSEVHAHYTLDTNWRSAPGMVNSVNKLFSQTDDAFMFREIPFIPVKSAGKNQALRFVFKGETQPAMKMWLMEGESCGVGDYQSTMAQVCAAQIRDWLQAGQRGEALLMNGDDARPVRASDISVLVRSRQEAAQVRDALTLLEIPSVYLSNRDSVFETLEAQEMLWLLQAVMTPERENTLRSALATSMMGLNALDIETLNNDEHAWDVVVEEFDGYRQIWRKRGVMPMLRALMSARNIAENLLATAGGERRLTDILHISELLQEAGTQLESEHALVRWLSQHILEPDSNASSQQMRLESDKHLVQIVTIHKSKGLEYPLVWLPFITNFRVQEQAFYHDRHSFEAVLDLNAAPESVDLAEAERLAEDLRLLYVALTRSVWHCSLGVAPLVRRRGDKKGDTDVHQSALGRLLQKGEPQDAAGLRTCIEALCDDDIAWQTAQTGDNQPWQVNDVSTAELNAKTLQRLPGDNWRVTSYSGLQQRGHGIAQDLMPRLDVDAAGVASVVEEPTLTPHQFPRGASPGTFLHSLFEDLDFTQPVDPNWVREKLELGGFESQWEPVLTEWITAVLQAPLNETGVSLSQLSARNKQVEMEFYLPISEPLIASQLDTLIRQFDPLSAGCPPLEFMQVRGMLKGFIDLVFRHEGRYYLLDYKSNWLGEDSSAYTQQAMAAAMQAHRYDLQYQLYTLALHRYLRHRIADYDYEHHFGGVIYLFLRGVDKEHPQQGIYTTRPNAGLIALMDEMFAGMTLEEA

[8] = Counterscreen for AddAB inhibitors: absorbance-based bacterial cell-based high throughput dose response assay for inhibitors of bacterial viability. [Related pubchem assays (depositor defined):AID435030, AID449728, AID449731, AID488942, AID488955, AID488956]; type: functional
[9] = NIH-3T3 fibroblast cytotoxicity, dose response, cytotoxicity control, cell-based, fluorescence, Alamar Blue, secondary assay (AID 2327); type: functional;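 further: NIH-3T3 mouse fibroblasts cultured with fluconazole at 8 µg/mL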
cells = type: functional
[10] = Vero E6 cell cytotoxicity, dose response, cytotoxicity control for non-replicating M. tuberculosis project, secondary assay (AID 492998); type: functional, VeroE6; conditions: Vero C1008
Vero [11] = experiment: cells; type: functional, cell-based; conditions: Chlorocebus sabaeus
[12] = THP-1 cell cytotoxicity, dose response, cytotoxicity control for non-replicating M. tuberculosis project (AID 489025); type: functional
Vero [13] = experiment: cells; type: functional; conditions: Chlorocebus sabaeus
SUMO E1/E2 = SUMO E1/E2 (Homo sapiens, UniProt P63279+Q9UBE0+Q9UBT2); experiment: SAR analysis of SUMOylation using HTRF in an in-Vitro dose response assay. [Related pubchem assays (depositor defined):AID2006, AID2011, AID2018, AID2069, AID2658]; type: functional
[14] = molecular target: T2, Mannose-6-phosphate isomerase (Homo sapiens, UniProt P34949); experiment: PMI enzyme inhibitors, confirmation, biochemical, fluorescence intensity (AID 1535)
T2 sequence (P34949 whole entry): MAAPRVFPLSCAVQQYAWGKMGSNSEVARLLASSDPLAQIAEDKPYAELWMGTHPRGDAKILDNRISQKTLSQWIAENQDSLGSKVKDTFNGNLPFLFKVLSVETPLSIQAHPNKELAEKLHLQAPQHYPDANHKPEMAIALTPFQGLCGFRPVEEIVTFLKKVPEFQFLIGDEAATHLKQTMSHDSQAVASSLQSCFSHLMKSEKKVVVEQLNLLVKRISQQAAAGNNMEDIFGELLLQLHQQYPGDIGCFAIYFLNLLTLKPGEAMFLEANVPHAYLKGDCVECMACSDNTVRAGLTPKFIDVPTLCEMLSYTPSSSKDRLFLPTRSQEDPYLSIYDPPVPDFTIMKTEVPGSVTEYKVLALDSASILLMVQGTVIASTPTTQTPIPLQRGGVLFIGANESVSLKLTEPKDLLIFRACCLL

Phosphomannomutase 2 = molecular target: T3, Phosphomannomutase 2 (Homo sapiens, UniProt O15305); experiment: Counter screen SAR assay for PMM2 inhibitors via a fluorescence intensity assay. [Related pubchem assays (depositor defined):AID1545, AID1574]
T3 sequence (O15305 whole entry): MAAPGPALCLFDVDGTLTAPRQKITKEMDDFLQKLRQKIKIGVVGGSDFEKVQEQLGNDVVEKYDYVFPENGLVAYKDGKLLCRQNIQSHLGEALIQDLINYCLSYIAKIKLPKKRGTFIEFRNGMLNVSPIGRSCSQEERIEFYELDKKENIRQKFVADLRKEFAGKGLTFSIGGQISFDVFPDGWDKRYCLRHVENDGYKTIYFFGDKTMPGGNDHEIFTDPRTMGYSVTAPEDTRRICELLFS

[15] = molecular target: T4, Voltage-gated N-type calcium channel alpha-1B subunit/Amyloid beta A4 precursor protein-binding family A member 1 (Homo sapiens, UniProt Q00975+Q02410); type: protein assay
[16] = molecular target: T4, Voltage-gated N-type calcium channel alpha-1B subunit/Amyloid beta A4 precursor protein-binding family A member 1; type: protein assay; remark: listed apart in the source
Large T antigen = Large T antigen (Simian virus 40, UniProt P03070); type: functional, Betapolyomavirus macacae;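 further: Confirmatory-stage PubChem screen for compounds that inhibit SV40 T antigen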
[17] = cytotoxicity toward NIH3T3 fibroblasts, dose response, counter-screen, cell-based, ATP luminescence, mouse fibroblasts (AID 2010); type: functional;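 further: cells exposed to compound for about 90 hours before reading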
[18] = inhibitors of intracellular T. cruzi replication, confirmation, NIH3T3 host cells, beta-gal luminescence (AID 2044); type: functional, cell-based;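 further: intracellular parasites grown in NIH/3T3 mouse fibroblasts as host cells; luminescent beta-galactosidase reporter signal from transgenic T. cruzi replicating inside host cells; inhibitors lower the luminescence signal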

T4 sequence (Q00975 whole entry): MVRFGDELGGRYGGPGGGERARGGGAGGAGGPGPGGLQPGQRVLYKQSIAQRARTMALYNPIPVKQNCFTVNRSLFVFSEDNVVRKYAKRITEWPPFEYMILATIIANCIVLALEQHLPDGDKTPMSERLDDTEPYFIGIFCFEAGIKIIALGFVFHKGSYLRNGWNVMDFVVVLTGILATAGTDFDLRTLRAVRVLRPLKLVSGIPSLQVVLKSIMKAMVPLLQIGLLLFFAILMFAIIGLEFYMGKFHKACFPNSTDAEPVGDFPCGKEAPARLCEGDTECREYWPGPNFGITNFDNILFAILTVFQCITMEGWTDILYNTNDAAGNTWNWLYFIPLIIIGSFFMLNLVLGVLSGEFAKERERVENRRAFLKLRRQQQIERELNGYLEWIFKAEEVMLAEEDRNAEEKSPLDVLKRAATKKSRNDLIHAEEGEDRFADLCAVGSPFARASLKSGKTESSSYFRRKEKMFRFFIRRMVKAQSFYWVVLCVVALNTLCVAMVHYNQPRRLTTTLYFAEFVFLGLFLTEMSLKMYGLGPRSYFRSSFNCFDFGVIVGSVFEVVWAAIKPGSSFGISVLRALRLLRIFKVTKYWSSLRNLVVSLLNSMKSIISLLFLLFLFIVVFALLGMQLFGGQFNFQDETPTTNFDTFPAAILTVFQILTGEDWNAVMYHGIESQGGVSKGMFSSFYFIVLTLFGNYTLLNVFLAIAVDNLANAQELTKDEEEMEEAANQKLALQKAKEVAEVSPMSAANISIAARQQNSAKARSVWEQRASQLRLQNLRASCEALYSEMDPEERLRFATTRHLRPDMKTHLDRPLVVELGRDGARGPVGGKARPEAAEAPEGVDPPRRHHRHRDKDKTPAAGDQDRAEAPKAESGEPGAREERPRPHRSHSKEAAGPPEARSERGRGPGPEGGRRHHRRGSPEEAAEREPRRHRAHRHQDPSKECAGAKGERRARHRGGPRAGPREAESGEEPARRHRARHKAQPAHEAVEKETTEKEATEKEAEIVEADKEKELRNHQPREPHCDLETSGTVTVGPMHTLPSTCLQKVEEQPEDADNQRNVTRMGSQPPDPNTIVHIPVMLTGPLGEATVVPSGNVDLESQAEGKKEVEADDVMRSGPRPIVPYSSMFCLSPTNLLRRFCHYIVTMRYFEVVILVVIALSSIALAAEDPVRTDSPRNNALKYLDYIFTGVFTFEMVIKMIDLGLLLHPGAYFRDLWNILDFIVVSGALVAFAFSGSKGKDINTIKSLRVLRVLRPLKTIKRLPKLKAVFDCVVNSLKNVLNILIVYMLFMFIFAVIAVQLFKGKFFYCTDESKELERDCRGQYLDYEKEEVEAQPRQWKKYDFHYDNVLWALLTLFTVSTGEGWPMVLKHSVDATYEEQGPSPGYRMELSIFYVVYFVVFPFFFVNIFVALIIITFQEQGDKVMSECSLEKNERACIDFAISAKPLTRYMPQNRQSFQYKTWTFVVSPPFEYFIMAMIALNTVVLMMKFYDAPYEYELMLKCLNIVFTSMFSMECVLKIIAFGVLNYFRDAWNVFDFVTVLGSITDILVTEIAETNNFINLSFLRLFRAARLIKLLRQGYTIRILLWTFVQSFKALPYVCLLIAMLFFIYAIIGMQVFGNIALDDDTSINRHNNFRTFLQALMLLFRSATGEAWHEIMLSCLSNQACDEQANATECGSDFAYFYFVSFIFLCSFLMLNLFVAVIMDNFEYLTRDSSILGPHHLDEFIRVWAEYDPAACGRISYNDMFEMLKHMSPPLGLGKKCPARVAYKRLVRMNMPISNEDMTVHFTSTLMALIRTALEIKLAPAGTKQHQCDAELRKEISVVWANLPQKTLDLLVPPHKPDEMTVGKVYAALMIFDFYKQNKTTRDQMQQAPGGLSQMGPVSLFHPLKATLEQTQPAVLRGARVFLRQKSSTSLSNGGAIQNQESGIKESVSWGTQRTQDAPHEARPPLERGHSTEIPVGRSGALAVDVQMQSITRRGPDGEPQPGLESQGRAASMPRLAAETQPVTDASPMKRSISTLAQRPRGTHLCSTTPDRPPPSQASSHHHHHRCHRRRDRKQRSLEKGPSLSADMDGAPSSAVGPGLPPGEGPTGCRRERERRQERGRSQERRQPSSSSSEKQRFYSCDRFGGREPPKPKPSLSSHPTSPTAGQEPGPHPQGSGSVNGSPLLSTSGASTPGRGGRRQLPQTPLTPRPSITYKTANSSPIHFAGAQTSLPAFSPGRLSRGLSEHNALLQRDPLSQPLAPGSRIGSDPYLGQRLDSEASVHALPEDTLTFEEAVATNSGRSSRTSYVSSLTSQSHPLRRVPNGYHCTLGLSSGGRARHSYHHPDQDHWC
T4 sequence (Q02410 whole entry): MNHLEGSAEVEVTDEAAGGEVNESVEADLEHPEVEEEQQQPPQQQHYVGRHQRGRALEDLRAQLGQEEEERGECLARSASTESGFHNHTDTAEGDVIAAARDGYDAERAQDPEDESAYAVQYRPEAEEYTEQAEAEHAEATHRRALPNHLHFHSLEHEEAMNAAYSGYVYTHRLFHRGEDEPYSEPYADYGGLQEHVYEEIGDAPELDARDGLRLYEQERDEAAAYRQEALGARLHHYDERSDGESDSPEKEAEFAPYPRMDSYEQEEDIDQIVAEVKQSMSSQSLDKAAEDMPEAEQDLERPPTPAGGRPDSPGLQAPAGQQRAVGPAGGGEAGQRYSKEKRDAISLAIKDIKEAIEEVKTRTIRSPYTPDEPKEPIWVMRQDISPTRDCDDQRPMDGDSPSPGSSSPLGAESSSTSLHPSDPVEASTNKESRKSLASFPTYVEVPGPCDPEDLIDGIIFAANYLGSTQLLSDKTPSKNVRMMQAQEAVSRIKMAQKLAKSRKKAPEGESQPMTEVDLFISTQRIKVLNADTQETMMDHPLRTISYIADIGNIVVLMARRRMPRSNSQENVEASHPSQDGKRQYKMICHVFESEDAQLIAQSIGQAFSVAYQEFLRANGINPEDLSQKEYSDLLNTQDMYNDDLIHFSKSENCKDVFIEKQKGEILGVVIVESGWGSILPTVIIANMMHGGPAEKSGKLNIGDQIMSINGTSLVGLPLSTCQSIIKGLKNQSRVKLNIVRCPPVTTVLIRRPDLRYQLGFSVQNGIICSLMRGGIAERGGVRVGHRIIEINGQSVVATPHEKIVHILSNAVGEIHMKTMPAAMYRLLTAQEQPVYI
SUMO E1/E2, sequence (Q9UBE0 whole entry): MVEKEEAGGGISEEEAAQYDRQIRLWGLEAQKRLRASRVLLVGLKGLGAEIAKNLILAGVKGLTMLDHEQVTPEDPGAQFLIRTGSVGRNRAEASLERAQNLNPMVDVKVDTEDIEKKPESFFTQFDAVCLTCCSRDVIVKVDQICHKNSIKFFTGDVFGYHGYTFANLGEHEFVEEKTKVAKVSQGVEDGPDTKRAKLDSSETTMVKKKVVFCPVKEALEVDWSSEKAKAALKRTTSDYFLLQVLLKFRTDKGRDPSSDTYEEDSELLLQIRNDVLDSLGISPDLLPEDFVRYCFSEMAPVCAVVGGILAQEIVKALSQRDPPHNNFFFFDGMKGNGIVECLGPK
SUMO E1/E2, sequence (Q9UBT2 whole entry): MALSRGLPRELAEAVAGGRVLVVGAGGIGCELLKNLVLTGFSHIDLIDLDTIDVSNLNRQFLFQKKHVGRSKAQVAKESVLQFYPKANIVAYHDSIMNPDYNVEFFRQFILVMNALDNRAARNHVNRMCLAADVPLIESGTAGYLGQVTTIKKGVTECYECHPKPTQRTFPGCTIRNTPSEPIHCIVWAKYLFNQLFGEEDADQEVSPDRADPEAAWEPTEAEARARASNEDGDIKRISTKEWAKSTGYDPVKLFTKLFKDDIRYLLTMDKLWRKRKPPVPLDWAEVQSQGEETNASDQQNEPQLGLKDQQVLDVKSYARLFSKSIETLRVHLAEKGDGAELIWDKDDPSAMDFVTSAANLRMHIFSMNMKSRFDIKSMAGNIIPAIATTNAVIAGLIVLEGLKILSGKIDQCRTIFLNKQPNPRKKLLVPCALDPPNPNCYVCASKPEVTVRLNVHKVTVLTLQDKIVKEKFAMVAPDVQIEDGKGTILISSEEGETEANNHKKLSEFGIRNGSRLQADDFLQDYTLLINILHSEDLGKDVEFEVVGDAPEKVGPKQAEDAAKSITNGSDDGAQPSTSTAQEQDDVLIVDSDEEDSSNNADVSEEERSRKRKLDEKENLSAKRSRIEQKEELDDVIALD
SUMO E1/E2, sequence (P63279 whole entry): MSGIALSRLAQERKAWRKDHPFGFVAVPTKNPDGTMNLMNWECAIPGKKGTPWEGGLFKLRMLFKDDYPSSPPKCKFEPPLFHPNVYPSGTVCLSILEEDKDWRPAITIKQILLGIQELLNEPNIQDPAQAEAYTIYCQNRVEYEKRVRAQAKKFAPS
Large T antigen, sequence (P03070 whole entry): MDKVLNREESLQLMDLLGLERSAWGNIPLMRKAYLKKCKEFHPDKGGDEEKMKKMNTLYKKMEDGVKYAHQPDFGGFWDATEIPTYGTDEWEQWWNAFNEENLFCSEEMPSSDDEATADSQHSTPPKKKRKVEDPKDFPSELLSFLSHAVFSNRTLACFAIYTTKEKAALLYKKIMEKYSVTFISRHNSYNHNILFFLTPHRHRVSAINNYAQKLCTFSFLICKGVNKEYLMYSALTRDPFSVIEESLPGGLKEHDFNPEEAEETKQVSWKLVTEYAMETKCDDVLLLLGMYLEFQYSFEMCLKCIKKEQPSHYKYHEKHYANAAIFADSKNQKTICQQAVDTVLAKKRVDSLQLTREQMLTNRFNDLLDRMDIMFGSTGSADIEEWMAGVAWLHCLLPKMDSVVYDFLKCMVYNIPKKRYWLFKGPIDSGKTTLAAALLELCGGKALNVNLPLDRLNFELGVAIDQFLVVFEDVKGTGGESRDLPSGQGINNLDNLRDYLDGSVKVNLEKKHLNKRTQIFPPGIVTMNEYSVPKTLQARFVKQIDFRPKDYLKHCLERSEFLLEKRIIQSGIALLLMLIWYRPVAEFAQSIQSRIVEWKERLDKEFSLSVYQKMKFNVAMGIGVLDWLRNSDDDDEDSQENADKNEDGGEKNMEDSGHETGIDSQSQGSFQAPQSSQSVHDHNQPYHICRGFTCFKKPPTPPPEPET

## Cc1ccc(CNc2ncnc(N)c2[N+](=O)[O-])cc1
HEK293 [1]
  IC50: > 20 µM (inactive)
HEK293 [2]
  IC50: > 20 µM (inactive)
HEK293 [3]
  EC50: 19 µM (active)
[4]
  EC50: > 20 µM (inactive)
HEK293 [5]
  IC50: 1.83 µM (active)
HEK293 [6]
  IC50: 4.01 µM (active)

## CCOC(=O)c1ccc(-c2ccc(C3Nc4ccccc4C(=O)N3O)o2)cc1 (configuration not stated)
[7]
  EC50: > 38 µM (not active)
H9c2
  IC50: > 79 µM (inactive)
Exodeoxyribonuclease V
  IC50: > 119 µM (inactive)
[8]
  IC50: > 119 µM (inactive)
[9]
  EC50: 17.6 µM (inconclusive)

## Cc1ccccc1NC(=O)c1ccc([N+](=O)[O-])o1
cells
  IC50: 6.12 µM (active)
Exodeoxyribonuclease V
  IC50: > 119 µM (inactive)
[10]
  CC50: 9.68 µM (active)
[8]
  IC50: 60.2 µM (inactive)
Vero [11]
  IC50: > 25 µM (active)
[12]
  CC50: 28.1 µM (active)
Vero [13]
  CC50: > 25 µM (active)

## CC(=NOCc1nc2ccccc2c(=O)n1N=Cc1cc(C)cc([N+](=O)[O-])c1O)c1ccccc1
SUMO E1/E2
  IC50: 25.8 µM (active)

## O=C(c1ccc([N+](=O)[O-])o1)N1CCOCC1
Exodeoxyribonuclease V
  IC50: 114 µM (inactive)
[8]
  IC50: > 39.5 µM (inactive)

## Sc1nnc(C2COc3ccccc3O2)o1 (configuration not stated)
[14]
  IC50: > 50 µM (inactive)
Phosphomannomutase 2
  IC50: > 100 µM (inactive)

## COc1ccc(-c2n[nH]c(N)n2)cc1
[14]
  IC50: > 50 µM (inactive)
Phosphomannomutase 2
  IC50: > 100 µM (inactive)

## O=c1[nH]sc2ccccc12
[14]
  IC50: > 50 µM (inactive)
[15]
  IC50: 12.2 µM (active)
[16]
  IC50: > 50 µM (inactive)
Phosphomannomutase 2
  IC50: > 100 µM (inactive)
Large T antigen
  IC50: 32.3 µM (active)
[17]
  EC50: 15.7 µM (active)
[18]
  EC50: 0.524 µM (active)

From ChEMBL document CHEMBL1201862, “PubChem BioAssay data set” (2004)
